From patent US20090155784A1, “ASSESSMENT OF ASTHMA AND ALLERGEN-DEPENDENT GENE EXPRESSION” (Wyeth, priority 2007, published 2009)

System: PBMCs from healthy volunteers
Experiment: HG-U133A baseline gene expression in PBMCs of healthy volunteers (HV), cPLA2 inhibitor in the absence of allergen (no AG)
Type: cell-based, human
Source text: PBMCs were stimulated in vitro with a cocktail containing 4 different allergens from house dust mite, ragweed and cat. Recombinant allergens, Der p1, Der f2, Fel d1 (Indoor Biotech, Charlottesville, Va.) and natural ragweed allergen (Allergy Lab, Seattle, Wash.) were selected and screened for endotoxin contamination (LAL Endotoxin Test, Catalog #HIT302, sensitivity, 0.0001 Eu/ml, Cell Sciences, Canton, Mass.). The sensitivity of the subjects was unknown but the allergens were chosen based on the estimate that 80% of allergic individuals are believed to react to one or more of these allergens. Culture medium contained RPMI-1640 (Sigma) with 10% heat inactivated FCS (Sigma St. Louis, Mo.) and 100 unit/mL Penicillin and […] Streptomycin and 0.292 mg/mL Glutamine (GIBCO RL Invitrogen, Carlsbad, Calif.). The final allergen cocktail concentrations in culture medium were: Der p1 and Der f2 (dust mite), 1 mg/ml; Fel d1 (cat), 1.25 mg/ml; ragweed, 125 mg/ml. The total level of endotoxin contamination in culture medium was 0.057 Eu/ml. The cPLA2 inhibitor 4-{3-[1-benzhydryl-5-chloro-2-(2-{[(2,6-dimethylbenzyl)sulfonyl]amino}ethyl)-1H-indol-3-yl]propyl}benzoic acid was used at a concentration of 0.3 μM/ml. Zileuton, a 5-lipoxygenase inhibitor, was added at a concentration of 5 μM. The inhibitory activity of both the cPLA2 inhibitor and Zileuton samples were verified in a human whole blood assay. After 6 days in culture approximately 200 μL of supernatant was removed using an 8-channel pipettor without disturbing the cell pellet and placed into a collection plate for cytokine ELISA assays. To the remaining cell pellet 100 μL of RLT lysis buffer containing 1% beta-mercaptoethanol was added and snap frozen for RNA purification.
RNA was purified using QIA shredders and Rneasy mini kits (Qiagen, Valencia, Calif.). PBMC pellets frozen in RLT lysis buffer containing 1% β-mercaptoethanol were thawed and processed for total RNA isolation using the QIA shredder and RNeasy mini kit. A phenol:chloroform extraction was then performed, and the RNA was repurified using the RNeasy mini kit reagents. Eluted RNA was quantified using a Spectramax96 well plate UV reader (Molecular Devices, Sunnyvale, Calif., USA) monitoring A260/280 OD values. The quality of each RNA sample was assessed by capillary electrophoresis alongside an RNA molecular weight ladder on the Agilent 2100 bioanalyzer (Agilent Technologies, Palo Alto, Calif., USA). RNA samples were assigned quality values of intact (distinct 18S and 28S bands); partially degraded (discernible 18S and 28S bands with presence of low molecular weight bands) or completely degraded (no discernible 18S and 28S bands).
Labeled targets for oligonucleotide arrays were prepared using a modification of the procedure described by Lockhart et al. (Lockhart (1996) Nat. Biotechnol. 14:1675-80). Labeled targets were hybridized to the HG-U133A Affymetrix GeneChip Array as described in the Affymetrix technical manual. Eleven biotinylated control transcripts ranging in abundance from 3 parts per million (ppm) to 100 ppm were spiked into each sample to function as a standard curve (Hill (2001) Genome Biol. 2:RESEARCH0055). GeneChip MAS 5.0 software was used to evaluate the hybridization intensity, compute the signal value for each probe set and make an absent/present call.
GeneChips were required to pass the pre-set quality control criteria that the RNA quality metric required a 5′:3′ ratio. Two asthma subjects were excluded from the study due to failure to meet the RNA quality metric and 2 GeneChips from the group treated with cPLA2a inhibitor were excluded for the same reason. The signal value for each probe set was converted into a frequency value representative of the number of transcripts present in 10^6 transcripts by reference to the standard curve (Hill (2001) Genome Biol. 2:RESEARCH0055). […]

Cc1cccc(C)c1CS(=O)(=O)NCCc1c(CCCc2ccc(C(=O)O)cc2)c2cc(Cl)ccc2n1C(c1ccccc1)c1ccccc1 [cPLA2 inhibitor, 4-{3-[1-benzhydryl-5-chloro-2-(2-{[(2,6-dimethylbenzyl)sulfonyl]amino}ethyl)-1H-indol-3-yl]propyl}benzoic acid]
Fold Change cPLA2 inhibitor vs. no AG HV (probeset 208723_at, gene USP11): 1.191 fold
Fold Change cPLA2 inhibitor vs. no AG HV (probeset 208735_s_at, gene CTDSP2): 1.214 fold
Fold Change cPLA2 inhibitor vs. no AG HV (probeset 208881_x_at, gene IDI1): 1.288 fold
Fold Change cPLA2 inhibitor vs. no AG HV (probeset 208962_s_at, gene UNK_BE540552): 1.667 fold
Fold Change cPLA2 inhibitor vs. no AG HV (probeset 208963_x_at, gene FADS1): 1.668 fold
Fold Change cPLA2 inhibitor vs. no AG HV (probeset 208992_s_at, gene STAT3): 1.161 fold
Fold Change cPLA2 inhibitor vs. no AG HV (probeset 209417_s_at, gene IFI35): 1.367 fold
Fold Change cPLA2 inhibitor vs. no AG HV (probeset 209949_at, gene NCF2): 1.229 fold
Fold Change cPLA2 inhibitor vs. no AG HV (probeset 209969_s_at, gene STAT1): 1.315 fold
Fold Change cPLA2 inhibitor vs. no AG HV (probeset 210029_at, gene INDO): 2.207 fold
Fold Change cPLA2 inhibitor vs. no AG HV (probeset 210146_x_at, gene LILRB2): 1.473 fold
Fold Change cPLA2 inhibitor vs. no AG HV (probeset 210176_at, gene TLR1): 1.302 fold
Fold Change cPLA2 inhibitor vs. no AG HV (probeset 210495_x_at, gene FN1): −16.2745 fold
Fold Change cPLA2 inhibitor vs. no AG HV (probeset 210524_x_at, gene UNK_AF078844): 1.984 fold
Fold Change cPLA2 inhibitor vs. no AG HV (probeset 210754_s_at, gene LYN): 1.482 fold
Fold Change cPLA2 inhibitor vs. no AG HV (probeset 210784_x_at, gene LILRB3): 1.348 fold
Fold Change cPLA2 inhibitor vs. no AG HV (probeset 210962_s_at, gene AKAP9): −1.163 fold
Fold Change cPLA2 inhibitor vs. no AG HV (probeset 211133_x_at, gene LILRB3): 1.349 fold
Fold Change cPLA2 inhibitor vs. no AG HV (probeset 211135_x_at, gene LILRB3): 1.416 fold
Fold Change cPLA2 inhibitor vs. no AG HV (probeset 211456_x_at, gene UNK_AF333388): 2.494 fold
Fold Change cPLA2 inhibitor vs. no AG HV (probeset 211661_x_at, gene PTAFR): 1.264 fold
Fold Change cPLA2 inhibitor vs. no AG HV (probeset 211719_x_at, gene FN1): −18.8559 fold
Fold Change cPLA2 inhibitor vs. no AG HV (probeset 212066_s_at, gene USP34): −1.173 fold
Fold Change cPLA2 inhibitor vs. no AG HV (probeset 212185_x_at, gene MT2A): 2.359 fold
Fold Change cPLA2 inhibitor vs. no AG HV (probeset 212274_at, gene UNK_AV705559): 1.2259 fold
Fold Change cPLA2 inhibitor vs. no AG HV (probeset 212318_at, gene TNPO3): 1.195 fold
Fold Change cPLA2 inhibitor vs. no AG HV (probeset 212464_s_at, gene FN1): −16.6219 fold
Fold Change cPLA2 inhibitor vs. no AG HV (probeset 212859_x_at, gene MT2A): 2.114 fold
Fold Change cPLA2 inhibitor vs. no AG HV (probeset 212907_at, gene SLC30A1): 1.527 fold
Fold Change cPLA2 inhibitor vs. no AG HV (probeset 213571_s_at, gene EIF4EL3): 1.18 fold
Fold Change cPLA2 inhibitor vs. no AG HV (probeset 213629_x_at, gene MT1F): 1.953 fold
Fold Change cPLA2 inhibitor vs. no AG HV (probeset 213716_s_at, gene SECTM1): 1.603 fold
Fold Change cPLA2 inhibitor vs. no AG HV (probeset 214038_at, gene UNK_AI984980): 2.289 fold
Fold Change cPLA2 inhibitor vs. no AG HV (probeset 214179_s_at, gene NFE2L1): 1.302 fold
Fold Change cPLA2 inhibitor vs. no AG HV (probeset 214730_s_at, gene GLG1): 1.22 fold
Fold Change cPLA2 inhibitor vs. no AG HV (probeset 215051_x_at, gene AIF1): 1.464 fold
Fold Change cPLA2 inhibitor vs. no AG HV (probeset 215223_s_at, gene SOD2): 1.584 fold
Fold Change cPLA2 inhibitor vs. no AG HV (probeset 216336_x_at, gene UNK_AL031602): 1.748 fold
Fold Change cPLA2 inhibitor vs. no AG HV (probeset 216442_x_at, gene FN1): −15.6848 fold
Fold Change cPLA2 inhibitor vs. no AG HV (probeset 216841_s_at, gene SOD2): 1.463 fold
Fold Change cPLA2 inhibitor vs. no AG HV (probeset 217165_x_at, gene MT1F): 2.496 fold
Fold Change cPLA2 inhibitor vs. no AG HV (probeset 217965_s_at, gene HCNGP): 1.185 fold
Fold Change cPLA2 inhibitor vs. no AG HV (probeset 218154_at, gene FLJ12150): 1.267 fold
Fold Change cPLA2 inhibitor vs. no AG HV (probeset 218472_s_at, gene PELO): 1.163 fold
Fold Change cPLA2 inhibitor vs. no AG HV (probeset 219159_s_at, gene SLAMF7): 1.736 fold
Fold Change cPLA2 inhibitor vs. no AG HV (probeset 219519_s_at, gene SN): 2.441 fold
Fold Change cPLA2 inhibitor vs. no AG HV (probeset 219788_at, gene PILRA): 1.371 fold
Fold Change cPLA2 inhibitor vs. no AG HV (probeset 221165_s_at, gene IL22): 1.835 fold
Fold Change cPLA2 inhibitor vs. no AG HV (probeset 221558_s_at, gene LEF1): −1.137 fold
Fold Change cPLA2 inhibitor vs. no AG HV (probeset 221581_s_at, gene WBSCR5): 1.343 fold
Fold Change cPLA2 inhibitor vs. no AG HV (probeset 222218_s_at, gene PILRA): 1.292 fold
